{"source": "ChEMBL document CHEMBL2073761", "about": "“Celastraceae sesquiterpenes as a new class of modulators that bind specifically to human P-glycoprotein and reverse cellular multidrug resistance” (Cancer Res, 2004)", "molecular_target": "ATP-dependent translocase ABCB1 (Homo sapiens, UniProt P08183)", "sequence (P08183 whole entry)": "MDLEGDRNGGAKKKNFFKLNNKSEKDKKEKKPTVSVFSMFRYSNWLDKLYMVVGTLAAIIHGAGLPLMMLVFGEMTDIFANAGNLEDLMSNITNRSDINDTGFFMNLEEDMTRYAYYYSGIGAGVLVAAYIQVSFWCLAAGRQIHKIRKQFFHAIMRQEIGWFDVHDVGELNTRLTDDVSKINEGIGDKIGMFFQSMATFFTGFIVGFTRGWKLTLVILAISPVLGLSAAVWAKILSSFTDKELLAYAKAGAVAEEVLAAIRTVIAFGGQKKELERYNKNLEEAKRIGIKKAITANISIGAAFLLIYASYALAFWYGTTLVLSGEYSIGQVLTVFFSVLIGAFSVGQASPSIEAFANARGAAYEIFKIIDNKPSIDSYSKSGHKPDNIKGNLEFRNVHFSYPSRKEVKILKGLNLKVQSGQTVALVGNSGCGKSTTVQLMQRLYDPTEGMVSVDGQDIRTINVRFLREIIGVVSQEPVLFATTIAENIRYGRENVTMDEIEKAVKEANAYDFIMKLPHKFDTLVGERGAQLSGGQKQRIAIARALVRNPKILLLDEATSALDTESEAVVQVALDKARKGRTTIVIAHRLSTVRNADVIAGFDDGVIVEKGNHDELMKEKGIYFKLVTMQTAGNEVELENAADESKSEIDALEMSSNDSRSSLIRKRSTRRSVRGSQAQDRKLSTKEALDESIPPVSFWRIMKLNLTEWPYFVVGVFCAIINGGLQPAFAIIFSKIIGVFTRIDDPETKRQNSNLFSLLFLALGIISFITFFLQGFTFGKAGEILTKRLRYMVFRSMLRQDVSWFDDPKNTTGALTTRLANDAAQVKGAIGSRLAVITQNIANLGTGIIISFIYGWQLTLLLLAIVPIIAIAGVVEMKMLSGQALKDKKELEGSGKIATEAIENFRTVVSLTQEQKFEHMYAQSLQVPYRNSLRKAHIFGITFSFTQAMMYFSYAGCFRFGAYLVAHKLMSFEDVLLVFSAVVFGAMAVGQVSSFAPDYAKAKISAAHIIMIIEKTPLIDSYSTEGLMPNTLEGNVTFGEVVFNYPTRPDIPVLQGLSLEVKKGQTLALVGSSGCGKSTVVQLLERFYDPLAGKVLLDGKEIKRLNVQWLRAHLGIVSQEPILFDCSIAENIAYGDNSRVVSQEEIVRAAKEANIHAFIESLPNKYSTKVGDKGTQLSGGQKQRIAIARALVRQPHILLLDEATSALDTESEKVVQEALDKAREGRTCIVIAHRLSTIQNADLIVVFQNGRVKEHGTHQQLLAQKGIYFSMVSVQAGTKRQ", "assay": "TP_TRANSPORTER: efflux of Tetramethylrosamine in membrane vesicles from reconstituted PMPC proteoliposomes containing P-glycoprotein", "assay_type": "functional, cell membranes, Membrane vesicle from reconstituted proteoliposome", "data": [{"smiles": "CN(C)c1ccc2c(-c3ccc(CCl)cc3)c3ccc(=[N+](C)C)cc-3oc2c1.[Br-]", "note": "[TETRAMETHYLROSAMINE]", "values": [{"measurement": "Activity", "result": "inhibitor [+]"}]}]}
